Experimental data published in article PMC8879200, “Design, Synthesis, and Biological Evaluation of 4,4’-Difluorobenzhydrol Carbamates as Selective M1 Antagonists” (Pharmaceuticals, 2022).

Columns and labels:
hM3 = biological target: T1, hM3 (Homo sapiens, UniProt P20309); assay: Competitive [3H]NMS radioligand binding, CHO-hM3 cell membranes; conditions: for Displacement ± SD of [3H]NMS binding, hM3: single ligand concentration corresponding to a Ki of 1 µM (Cheng-Prusoff); for Ki: read-out: Affinity: Ki ± SD, hM3
T1 construct: host or cells: CHO-K1, stably transfected
T1 sequence (P20309 whole entry): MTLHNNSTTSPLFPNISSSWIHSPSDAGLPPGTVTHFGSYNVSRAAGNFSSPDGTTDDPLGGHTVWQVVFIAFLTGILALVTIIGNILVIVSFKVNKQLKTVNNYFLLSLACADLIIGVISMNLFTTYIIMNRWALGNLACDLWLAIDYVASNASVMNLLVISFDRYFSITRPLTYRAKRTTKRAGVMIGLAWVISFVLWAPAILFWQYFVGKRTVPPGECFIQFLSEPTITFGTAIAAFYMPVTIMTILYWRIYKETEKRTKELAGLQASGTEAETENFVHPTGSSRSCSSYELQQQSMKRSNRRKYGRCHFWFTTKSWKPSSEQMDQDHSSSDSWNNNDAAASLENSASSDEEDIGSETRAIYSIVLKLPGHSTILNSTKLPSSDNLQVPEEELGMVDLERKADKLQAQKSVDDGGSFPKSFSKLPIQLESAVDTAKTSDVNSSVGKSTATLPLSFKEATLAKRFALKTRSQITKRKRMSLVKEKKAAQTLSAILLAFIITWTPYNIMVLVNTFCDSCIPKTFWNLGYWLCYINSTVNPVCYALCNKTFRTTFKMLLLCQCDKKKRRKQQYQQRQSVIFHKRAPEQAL
Protocol: (§1) We first assessed the carbamates’ affinities for human muscarinic acetylcholine receptors subtypes hM1–5 by means of a competitive radioligand binding assay displacing [N-methyl-^3H]scopolamine methyl chloride ([^3H]NMS) in cell membranes expressing the individual receptors.
(§2) Cell membranes bearing hM1-hM5 receptors were prepared as described previously. Briefly, stably transfected CHO-K1 cells were grown to at least 80% confluency in T175 flasks, washed with ice-cold DPBS, and scraped into a mixture of ice-cold of 2 mL 10 mM Tris-HCl, 1 mM EDTA-buffer, pH 7.4 and 200 µL protease inhibitor. A cell homogenate was prepared by passing the cell suspension through a G29 needle. The cell homogenates corresponding to two T175 flasks were combined and subsequently centrifuged (10 min, 1000 × g, 4 °C). Ultracentrifugation of the supernatant (1 h, 100,000 × g, 4 °C) yielded a membrane pellet, which was suspended in 250 µL 50 mM Tris-HCl buffer, pH 7.4 and stored at −80 °C.
(§3) Maximum binding was measured by using 5 µL DMSO, and nonspecific binding was measured by using 5 µL of 1 µM scopolamine in DMSO. […] The membrane-bound radioactivity was recovered by filtration through Whatman™ GF/B glass fibre filters pre-soaked in aqueous 0.1% PEI using an M-36 tygon tubed cell harvester (Brandel®, Gaithersburg, MD, USA). Membranes were washed 3 times with ice-cold washing buffer (50 mM Tris, pH 7.4) before being dried, transferred to 2 mL scintillation cocktail (UltimaGold™, high flashpoint LSC cocktail, PerkinElmer, Waltham, MA, USA) and counted in a β -counter (Hidex TDCR Liquid Scintillation Counter in CPM mode). IC50 values were calculated by a variable slope logistic regression using at least five distinct concentrations of test compounds, pipetted in triplicates.

hM1 = biological target: T2, hM1 (Homo sapiens, UniProt P11229); assay: Competitive [3H]NMS radioligand binding, CHO-hM1 cell membranes; conditions: for Displacement ± SD of [3H]NMS binding, hM1: single ligand concentration corresponding to a Ki of 1 µM (Cheng-Prusoff); for Ki: inhibition of [3H]NMS binding, CHO-hM1 membranes, read-out: Affinity: Ki ± SD, hM1
T2 construct: host or cells: CHO-K1, stably transfected
T2 sequence (P11229 1-460): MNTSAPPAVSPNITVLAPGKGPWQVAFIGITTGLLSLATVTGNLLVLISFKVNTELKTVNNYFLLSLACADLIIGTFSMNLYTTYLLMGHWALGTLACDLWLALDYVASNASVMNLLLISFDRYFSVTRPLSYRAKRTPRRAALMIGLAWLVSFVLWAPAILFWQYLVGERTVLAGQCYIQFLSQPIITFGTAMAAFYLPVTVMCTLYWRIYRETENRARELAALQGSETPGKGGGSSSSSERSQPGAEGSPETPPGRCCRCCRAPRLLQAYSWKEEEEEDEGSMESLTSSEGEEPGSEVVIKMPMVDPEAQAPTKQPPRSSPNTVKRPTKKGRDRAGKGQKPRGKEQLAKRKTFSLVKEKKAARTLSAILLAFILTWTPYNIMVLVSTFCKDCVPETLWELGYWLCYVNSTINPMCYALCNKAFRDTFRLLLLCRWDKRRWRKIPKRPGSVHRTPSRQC
Protocol: as §1, §2, §3

hM4 = biological target: T3, hM4 (Homo sapiens, UniProt P08173); assay: Competitive [3H]NMS radioligand binding, CHO-hM4 cell membranes; conditions: for Displacement ± SD of [3H]NMS binding, hM4: single ligand concentration corresponding to a Ki of 1 µM (Cheng-Prusoff); for Ki: inhibition of [3H]NMS binding, CHO-hM4 membranes, read-out: Affinity: Ki ± SD, hM4
T3 construct: host or cells: CHO-K1, stably transfected
T3 sequence (P08173 1-479): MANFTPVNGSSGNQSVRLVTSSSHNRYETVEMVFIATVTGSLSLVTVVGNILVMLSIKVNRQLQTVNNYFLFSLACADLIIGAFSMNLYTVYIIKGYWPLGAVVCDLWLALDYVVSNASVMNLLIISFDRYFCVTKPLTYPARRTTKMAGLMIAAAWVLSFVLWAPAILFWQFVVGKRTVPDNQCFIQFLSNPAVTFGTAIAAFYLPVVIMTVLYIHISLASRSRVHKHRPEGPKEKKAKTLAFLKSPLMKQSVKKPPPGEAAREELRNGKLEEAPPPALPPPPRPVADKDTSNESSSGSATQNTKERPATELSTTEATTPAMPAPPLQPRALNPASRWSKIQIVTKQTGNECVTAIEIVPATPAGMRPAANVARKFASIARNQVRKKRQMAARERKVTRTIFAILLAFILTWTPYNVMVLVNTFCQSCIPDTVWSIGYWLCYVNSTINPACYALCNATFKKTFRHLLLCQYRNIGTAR
Protocol: as §1, §2, §3

hM5 = biological target: T4, hM5 (Homo sapiens, UniProt P08912); assay: Competitive [3H]NMS radioligand binding, CHO-hM5 cell membranes; conditions: for Displacement ± SD of [3H]NMS binding, hM5: single ligand concentration corresponding to a Ki of 1 µM (Cheng-Prusoff); for Ki: inhibition of [3H]NMS binding, CHO-hM5 membranes, read-out: Affinity: Ki ± SD, hM5
T4 construct: host or cells: CHO-K1, stably transfected
T4 sequence (P08912 1-532): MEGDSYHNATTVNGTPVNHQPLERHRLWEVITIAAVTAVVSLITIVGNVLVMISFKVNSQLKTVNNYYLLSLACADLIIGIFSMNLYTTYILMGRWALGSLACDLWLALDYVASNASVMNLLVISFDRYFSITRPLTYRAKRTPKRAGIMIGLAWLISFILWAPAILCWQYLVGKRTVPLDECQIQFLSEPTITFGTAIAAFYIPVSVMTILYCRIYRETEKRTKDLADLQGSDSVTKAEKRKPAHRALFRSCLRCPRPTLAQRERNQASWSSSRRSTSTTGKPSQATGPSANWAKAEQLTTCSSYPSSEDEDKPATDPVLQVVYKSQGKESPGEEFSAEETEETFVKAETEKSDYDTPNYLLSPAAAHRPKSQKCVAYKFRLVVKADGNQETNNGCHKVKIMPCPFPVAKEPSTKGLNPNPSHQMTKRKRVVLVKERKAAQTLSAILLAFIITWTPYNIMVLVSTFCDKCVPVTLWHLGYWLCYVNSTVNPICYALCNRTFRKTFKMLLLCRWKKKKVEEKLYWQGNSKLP
Protocol: as §1, §2, §3

[1] = High throughput HPLC-logD (lipophilicity); conditions: pH 7.4
Protocol: Briefly, a mixture of toluene (≥98%, Sigma-Aldrich, St. Louis, MO, USA) and triphenylene (≥99.9%, Carl Roth, Karlsruhe, Germany) was used as internal standard. Each sample was dissolved in the internal standard mixture. Using gradient elution, the injection volume was set to 7 µL, the flow rate was 1.5 mL/min, and the mobile phase consisted of a mixture of methanol and 0.01 M sodium phosphate buffer pH 7.4. The HPLC-logD values were derived from the measured retention times following the previously published equation [27, 30].

hM2 = biological target: T5, hM2 (Homo sapiens, UniProt P08172); assay: Competitive [3H]NMS radioligand binding, CHO-hM2 cell membranes; conditions: for Displacement ± SD of [3H]NMS binding, hM2: single ligand concentration corresponding to a Ki of 1 µM (Cheng-Prusoff); for Ki: read-out: Affinity: Ki ± SD, hM2
T5 construct: host or cells: CHO-K1, stably transfected
T5 sequence (P08172 1-466): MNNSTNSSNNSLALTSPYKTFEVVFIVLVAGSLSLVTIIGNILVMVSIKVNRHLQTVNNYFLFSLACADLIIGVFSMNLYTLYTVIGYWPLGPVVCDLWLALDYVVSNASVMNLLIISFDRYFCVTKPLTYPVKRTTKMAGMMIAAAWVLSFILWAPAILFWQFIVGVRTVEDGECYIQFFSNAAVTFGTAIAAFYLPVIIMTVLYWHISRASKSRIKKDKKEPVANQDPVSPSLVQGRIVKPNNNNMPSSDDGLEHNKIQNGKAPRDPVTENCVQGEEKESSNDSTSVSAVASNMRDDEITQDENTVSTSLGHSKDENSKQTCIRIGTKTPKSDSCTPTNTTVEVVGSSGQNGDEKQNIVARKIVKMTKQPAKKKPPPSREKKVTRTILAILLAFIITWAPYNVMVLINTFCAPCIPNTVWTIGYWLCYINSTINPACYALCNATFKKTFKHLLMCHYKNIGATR
Protocol: as §1, §2, §3

[2] = Stability in fully supplemented RPMI1640 cell culture medium; format: in vitro ADME; conditions: fully supplemented RPMI1640, ambient temperature, after 24 h
Protocol: Since the decomposition in cell culture medium of compounds designated for biological testing could impair potential assay readouts, the stabilities of one tertiary carbamate (3) and one secondary carbamate (7) were investigated as representatives for the compound set 1–12. Gratifyingly, the rate of decomposition in fully supplemented RPMI1640 cell culture medium at ambient temperature has been fairly slow, with > 95% of both compounds remaining intact after 24 h (Supplementary Materials, Figure S3). Such stability is adequate with the requirements for carbon-11 labelled PET tracers of around 2–3 half-lives.
The stabilities of 3 and 7 were measured using the HPLC gradient method as described for the purity determination. 4 µL of a test compound’s stock solution in DMSO was diluted with fully supplemented RPMI1640 cell culture medium (10% FBS, 1% L-glutamine, without antibiotics). The stability was measured at ambient temperature and the column oven was set to 20 °C. The samples were measured at 0, 30, 60, 120 min and 24 h.

| SMILES | Displacement ± SD of [3H]NMS binding, hM3 (hM3) | Displacement ± SD of [3H]NMS binding, hM1 (hM1) | Displacement ± SD of [3H]NMS binding, hM4 (hM4) | Displacement ± SD of [3H]NMS binding, hM5 (hM5) | chromatographic logD [1] | Displacement ± SD of [3H]NMS binding, hM2 (hM2) | Compound remaining intact in cell culture medium [2] | Ki (hM3) | Ki (hM1) | Ki (hM4) | Ki (hM5) | Ki (hM2) | x-Fold selectivity for hM1 vs. hM3 (hM3; ratio of Ki values hM3/hM1) | x-Fold selectivity for hM1 vs. hM4 (hM4; ratio of Ki values hM4/hM1) | x-Fold selectivity for hM1 vs. hM5 (hM5; ratio of Ki values hM5/hM1) | x-Fold selectivity for hM1 vs. hM2 (hM2; ratio of Ki values hM2/hM1) |
| --- | --- | --- | --- | --- | --- | --- | --- | --- | --- | --- | --- | --- | --- | --- | --- | --- |
| CN1CCCC1CCNC(=O)OC(c1ccc(F)cc1)c1ccc(F)cc1 (centres unmarked) [Compound 11, Bis(4-fluorophenyl)methyl (2-(1-methylpyrrolidin-2-yl)ethyl)carbamate] | 62 ± 3% | 53 ± 8% | 54 ± 13% | 59 ± 17% | 2.5 ± 0.3 | 37 ± 15% |  |  |  |  |  |  |  |  |  |  |
| CN1CCOCC1CNC(=O)OC(c1ccc(F)cc1)c1ccc(F)cc1 (centres unmarked) [Compound 12, Bis(4-fluorophenyl)methyl ((4-methylmorpholin-3-yl)methyl)carbamate] | 25 ± 9% | 39 ± 5% | 20 ± 8% | 43 ± 11% | 2.82 ± 0.04 | 8 ± 5% |  |  |  |  |  |  |  |  |  |  |

Continued, values first:

| Displacement ± SD of [3H]NMS binding, hM3 (hM3) | Displacement ± SD of [3H]NMS binding, hM1 (hM1) | Displacement ± SD of [3H]NMS binding, hM4 (hM4) | Displacement ± SD of [3H]NMS binding, hM5 (hM5) | chromatographic logD [1] | Displacement ± SD of [3H]NMS binding, hM2 (hM2) | Compound remaining intact in cell culture medium [2] | Ki (hM3) | Ki (hM1) | Ki (hM4) | Ki (hM5) | Ki (hM2) | x-Fold selectivity for hM1 vs. hM3 (hM3; ratio of Ki values hM3/hM1) | x-Fold selectivity for hM1 vs. hM4 (hM4; ratio of Ki values hM4/hM1) | x-Fold selectivity for hM1 vs. hM5 (hM5; ratio of Ki values hM5/hM1) | x-Fold selectivity for hM1 vs. hM2 (hM2; ratio of Ki values hM2/hM1) | SMILES |
| --- | --- | --- | --- | --- | --- | --- | --- | --- | --- | --- | --- | --- | --- | --- | --- | --- |
| 29 ± 5% | 52 ± 8% | 48 ± 9% | 54 ± 8% | 3.25 ± 0.04 | 10 ± 7% |  |  |  |  |  |  |  |  |  |  | CN1CCC(NC(=O)OC(c2ccc(F)cc2)c2ccc(F)cc2)CC1 [Compound 6, Bis(4-fluorophenyl)methyl (1-methylpiperidin-4-yl)carbamate] |
|  |  |  |  | 2.2 ± 0.2 |  | > 95% | 16.1 ± 4.5 nM | 1.22 ± 0.06 nM | 6.2 ± 2.1 nM | 3.7 ± 1.3 nM | 32.8 ± 11.4 nM |  |  |  |  | CN1CCCC(NC(=O)OC(c2ccc(F)cc2)c2ccc(F)cc2)C1 (centres unmarked) [Compound 7, Bis(4-fluorophenyl)methyl (1-methylpiperidin-3-yl)carbamate] |
|  |  |  |  | 2.69 ± 0.01 |  |  | 277 ± 45.4 nM | 239 ± 67.9 nM | 238 ± 104 nM | 295 ± 32.8 nM | > 1000 nM | 1.2 fold | 1.0 fold | 1.2 fold | >4 fold | CN1CCC(CNC(=O)OC(c2ccc(F)cc2)c2ccc(F)cc2)C1 (centres unmarked) [Compound 10, Bis(4-fluorophenyl)methyl ((1-methylpyrrolidin-3-yl)methyl)carbamate] |
